Experimental data as given in patent EP1001770B1, “TAZAROTENE AND UVB PHOTOTHERAPY TREATMENT FOR PSORIASIS” (ALLERGAN, INC., priority 1997, dated 1998).

How the values were obtained:
[1] = test system: stable plaque psoriasis; test: Clinical study of Tazarotene 0.1% gel plus UVB phototherapy versus vehicle plus UVB or UVB alone: efficacy on target lesions; assay type: in vivo, humans
Text: (§1) The Study objective was to assess safety and efficacy of pre-treatment with Tazarotene 0.1% gel and UVB phototherapy in comparison with the Tazarotene vehicle (placebo) and UVB phototherapy and UVB phototherapy, alone, for 10 weeks. During UVB phototherapy, topical agents were applied three times weekly to the target lesion by the phototherapy nurse. The study was a multicenter, investigator-masked study including 60 subjects and 120 target lesions. During the two-week pre-UVB phototherapy period the patients were randomly assigned to receive two of the following treatments: Tazarotene 0.1% gel once a day; vehicle gel once a day; or no treatment. The topical agents were applied once daily. Prior to UVB therapy, the minimal erythemal dose (MED) was assessed using a range of 20 mJoules/cm^2 up to 100 mJoules/cm^2. Initial starting UVB dose is 25% of MED. If MED is immeasurable, starting dose is 25 mJoules/cm^2. During the ten-week UVB phototherapy period the patients were treated with UVB therapy three times a week and topical therapy three times weekly (0.1% Tazarotene gel, vehicle gel, or no treatment) administered by the phototherapy nurse after UVB exposure. Study population was as follows: male or non-reproductive female; 18 years or older; stable plaque psoriasis; two bilaterally symmetrical plaques accessible to phototherapy; not exceeding 50% of TBS; baseline plaque elevation of at least four (moderate, in 0-8 scoring system); no oral retinoid within two months; no excessive vitamin A intake; no oral psoriatic therapy (other than retinoid) or PUVA within one month; no UVB within two weeks; no significant systemic disease or immunosuppression. The UVB exposure was increased until either improvement in psoriasis was noted or MED was reached. If one target lesion reached MED earlier than the other, a photo-opaque covering was applied to the former so the latter site could still be treated with a higher dose of UVB irradiation. If both target lesions cleared, UVB was discontinued. […] The following evaluation criteria was used: • Efficacy Variable • Plaque elevation, scaling, erythema: • Grading Scale • 0 = none, 2= mild, 4=moderate, 6=severe, 8=very severe (with whole-point increments (1, 3, 5, 7) serving as mid-points) • Global response to treatment • Total cumulative UVB exposure (mJoules/cm^2)
Treatment success is defined as moderate response or better.

[2] = Same clinical study: adverse events and tolerability; assay type: in vivo, humans
Text: as §1
The following adverse events were reported during the study: […]

[3] = adverse events reported during the study (count), with UVB phototherapy

CCOC(=O)c1ccc(C#Cc2ccc3c(c2)C(C)(C)CCS3)nc1 [Tazarotene]
reduction in plaque ([1]; Figure 1, Tazarotene plus UVB compared with UVB treatment alone): more effective | reduction in scaling ([1]; Figure 2, Tazarotene plus UVB compared with UVB treatment alone): more effective | reduction in erythema ([1]; Figure 3, Tazarotene plus UVB compared with UVB treatment alone): more effective | treatment success rate ([1]; Figure 4, Tazarotene and UVB phototherapy, by day 81, success = moderate response or better): 100% | reductions in plaque ([1]; Figure 5, Tazarotene and UVB compared with UVB alone or UVB with vehicle (placebo)): greater | reductions in scaling ([1]; Figure 6, Tazarotene and UVB compared with UVB alone or UVB with vehicle (placebo)): greater | reductions in erythema ([1]; Figure 7, Tazarotene and UVB compared with UVB alone or UVB with vehicle (placebo)): greater | success rate ([1]; Figure 8, Tazarotene and UVB treatment, at 81 days): 100% | success ([1]; Figure 8, Tazarotene and UVB, at day 53): about 90% | time to reach treatment success ([1]; Tazarotene and UVB compared with vehicle and UVB): more quickly | overall effectiveness in treating psoriasis ([1]; Tazarotene and UVB compared with vehicle and UVB or UVB alone): more effective | Burning sensation [2, 3]: 1 | Itching [2, 3]: 1 | Lesional irritation [2, 3]: 0 | Perilesional irritation [2, 3]: 2 | Perilesional tenderness [2, 3]: 0 | severity of adverse events ([2]; all reported adverse events): mild
